Data published in patent US5952335A, “Fused polycyclic heterocycle derivatives” (Eisai Co., Ltd., priority 1995, dated 1999).
Structures can show the parent of a compound that is named as a salt. Where two headings read alike, the source gives them in different places.

Legend:
P388 cells = assay: in vitro Antitumor Test on P388 Cells (Mouse Leukemic Cells), MTT, 3 days; type: cell-based; settings: 72 h, 3 days incubation
Experimental: P388 cells suspended in RPMI1640 medium (manufactured by Sanko Junyaku) containing 10% of fetal calf serum, (100 U/ml) of penicillin, 100 μg/ml of streptomycin, 5×10^-5 M of mercaptoethanol and 1 mM of sodium pyruvate were pipetted into a 96-well U-bottomed microplate at a ratio of 1.25×10^3 cells (0.1 ml) per well and incubated in a incubator containing 5% of carbon dioxide at 37° C. for a day. A compound of the present invention was dissolved in dimethyl sulfoxide to give a concentration of 10^-2 M and then diluted with the 10% fetal calf serum-containing RPMI1640 culture medium to give a concentration of 10^-4 or 10^-5 M. By taking this concentration as the maximal level, threefold serial dilution was effected with the use of the 10% fetal calf serum-containing RPMI1640 culture medium. Then these dilutions were added to the P388 incubation plate as described above at a ratio of 0.1 ml per well followed by incubation in an incubator containing 5% of carbon dioxide at 37° C. for 3 days. After the completion of the incubation, 0.05 ml/well of a 3.3 mg/ml solution of MTT [3-(4,5-dimethylthiazol-2-yl)-2,5-diphenyltetrazolium bromide] was added thereto and the incubation was continued for additional 2 hours. The microplate was centrifuged and the supernatant was aspirated off from each well. Then the formazan thus formed was dissolved in 0.1 ml of dimethyl sulfoxide and the absorbance thereof at 540 nm measured with a microplate reader was taken as an indication of the viable cell count. In accordance with the following formula, the inhibitory ratio was calculated and the 50% inhibitory concentration (IC50) of the test compound was determined: [formula] wherein T means the absorbance of a well containing the test compound; and C means the absorbance of a well containing no test compound.

[1] = test system: MX-1 (Human Mammary Cancer); assay: in vivo Antitumor Test on MX-1 (Human Mammary Cancer) transplanted in nude mice; settings: Mus musculus, ip, 528 h, i.p., q7d × 3
Experimental: MX-1 tumor pieces (about 1 mm^3) were subcutaneously transplanted into the side part of each nude mouse (BALB/C.nu/nu, 6 to 7 weeks, female). A compound of the present invention was dissolved in a 5% solution of glucose. When the tumor volume reached 50 mm^3 (on the about 10th day after the transplantation), the solution of the compound was intraperitoneally administered to the animals once a day in accordance with each schedule. On the other hand, a 5% solution of glucose was administered to the control group. The control group had 10 animals, while each test group had 5 animals. On the 22nd day after the transplantation, tumors were taken out and weighed. The tumor multiplication inhibitory ratio of each test group to the control group was determined in accordance with the following formula: [formula] wherein T means the average tumor weight of the test group; and C means the average tumor weight of the control group.

[2] = test system: M5076 (Mouse Reticulum Cell Sarcoma); assay: in vivo Antitumor Test on M5076 (Mouse Reticulum Cell Sarcoma) transplanted in BDF1 mice; settings: M5076, ip, 504 h, i.p.; for survival rate on day 21 at 50 mg/kg / inhibition in vivo at 50 mg/kg: 50 mg/kg/day
Experimental: M5076 cells (1×10^6 /animal) were subcutaneously transplanted into the side part of each BDF1 mouse (aged 6 to 7 weeks, female). A compound of the present invention was dissolved in a 5% solution of glucose. From the next day of the transplantation, the solution of the compound was intraperitoneally administered to the animals once a day in accordance with each schedule. On the other hand, a 5% solution of glucose was administered to the control group. The control group had 10 animals, while each test group had 5 animals.
On the 21st day after the transplantation, tumors were taken out and weighed. The tumor multiplication inhibitory ratio of each test group to the control group was determined in accordance with the following formula: [formula] wherein T means the average tumor weight of the test group; and C means the average tumor weight of the control group.

[3] = d1,2,3,4 after transplantation, read-out: Survival rate on the judgement day (21th day)
[4] = d1,2,3,4 after transplantation, tumor weight day 21, read-out: Proliferation inhibitory ratio (%)

Compound	IC50 (P388 cells)	other results
CN(C)CCn1c(=O)c2cccc3c4c5c(ccc4n(c1=O)c23)C(=O)CC5 [Example 7, 11,12-Dihydro-5-[2-(dimethylamino)ethyl]-4H,10H-ccylopenta[c]pyrimido[5,6,1-jk]carbazole-4,6,10(5H)-trione hydrochloride]	31 nM	responders at 15 mg/kg ([1]; 15 mg/kg/day, read-out: Survival rate on the judgement day (22th day)): 100%; inhibition in vivo at 15 mg/kg ([1]; 15 mg/kg/day, tumor weight day 22, read-out: Proliferation inhibitory ratio (%)): 73.2%
CNCCn1c(=O)c2cccc3c4c5c(ccc4n(c1=O)c23)C(=O)CCC5 [Example 10, 12,13-Dihydro-5-[2-(methylamino)ethyl]-4H-benzo[c]pyrimido[5,6,1-jk]carbazole-4,6,10(5H,11H)-trione hydrochloride]	8.5 nM	responders at 10 mg/kg ([1]; 10 mg/kg/day, read-out: Survival rate on the judgement day (22th day)): 100%; inhibition in vivo at 10 mg/kg ([1]; 10 mg/kg/day, tumor weight day 22, read-out: Proliferation inhibitory ratio (%)): 59.7%
O=C1CCCc2c1ccc1c2c2cccc3c(=O)n(CCN4CCCC4)c(=O)n1c32 [Example 11, 12,13-Dihydro-5-[2-(1-pyrrolidinyl)ethyl]-4H-benzo [c]pyrimido[5,6,1-jk]carbazole-4,6,10(5H,11H)-trione hydrochloride]	42 nM	responders at 30 mg/kg ([1]; 30 mg/kg/day, read-out: Survival rate on the judgement day (22th day)): 100%; inhibition in vivo at 30 mg/kg ([1]; 30 mg/kg/day, tumor weight day 22, read-out: Proliferation inhibitory ratio (%)): 82.5%
O=c1c2cccc3c4c5ccccc5ccc4n(c(=O)n1CCN1CCCC1)c23 [Example 12, 5-[2-(1-Pyrrolidinyl)ethyl]-4H-benzo[c]pyrimido[5,6,1-jk]carbazole-4,6(5H)-dione hydrochloride]	62 nM	survival rate on day 21 at 50 mg/kg [2, 3]: 100%; inhibition in vivo at 50 mg/kg [2, 4]: 93.9%
CN(C)CCn1c(=O)c2cccc3c4c(n(c1=O)c32)Cc1ccccc1-4 [Example 20, 2-[2-(Dimethylamino)ethyl]-1H,11H-indeno[1',2':4,5]pyrrolo[3,2,1-ij]quinazoline-1,3(2H)-dione hydrochloride]	570 nM	survival rate on day 21 at 12.5 mg/kg ([2]; 12.5 mg/kg/day, d1,2,3,4 after transplantation, read-out: Survival rate on the judgement day (21th day)): 100%; inhibition in vivo at 12.5 mg/kg ([2]; 12.5 mg/kg/day, d1,2,3,4 after transplantation, tumor weight day 21, read-out: Proliferation inhibitory ratio (%)): 70.8%
COc1ccc2ccc3c(c2c1)c1cccc2c(=O)n(CCN(C)C)c(=O)n3c21 [Example 26, 5-[2-(Dimethylamino)ethyl]-12-methoxy-4H-benzo[c]pyrimido [5,6,1-jk]carbazole-4,6(5H)-dione hydrochloride]	230 nM	survival rate on day 21 at 50 mg/kg [2, 3]: 100%; inhibition in vivo at 50 mg/kg [2, 4]: 97.4%
CN(C)CCn1c(=O)c2cccc3c4c5cnccc5ccc4n(c1=O)c23 [Example 33, 9-[2-(Dimethylamino)ethyl]-8H-pyrido[4,3-c]pyrimido[5,6,1-jk]carbazole-8,10(9H)-dione dihydrochloride]	56 nM	survival rate on day 21 at 50 mg/kg ([2]; d9 after transplantation, read-out: Survival rate on the judgement day (21th day)): 100%; inhibition in vivo at 50 mg/kg ([2]; d9 after transplantation, tumor weight day 21, read-out: Proliferation inhibitory ratio (%)): 74.9%
CN(C)CCn1c(=O)c2cccc3c4c5ccc(C#N)cc5ccc4n(c1=O)c23 [Example 35, 11-Cyano-5-[2-(dimethylamino)ethyl]-4H-benzo[c]pyrimido [5,6,1-jk]carbazole-4,6(5H)-dione hydrochloride]	63 nM	survival rate on day 21 at 25 mg/kg ([2]; 25 mg/kg/day, d9 after transplantation, read-out: Survival rate on the judgement day (21th day)): 100%; inhibition in vivo at 25 mg/kg ([2]; 25 mg/kg/day, d9 after transplantation, tumor weight day 21, read-out: Proliferation inhibitory ratio (%)): 78.7%
Cc1ccc(S(=O)(=O)Nc2ccc3c(ccc4c3c3cccc5c(=O)n(CCN(C)C)c(=O)n4c53)c2)cc1 [Example 48, 5-[2-(Dimethylamino)ethyl]-11-(4-methylbenzenesulfonamido)-4H-benzo[c]pyrimido[5,6,1-jk]carbazole-4,6(5H)-dione hydrochloride]	350 nM	–
CN(C)CCn1c(=O)c2cccc3c4c5ccc(N)cc5ccc4n(c1=O)c23 [Example 49, 11-Amino-5-[2-(dimethylamino)ethyl]-4H-benzo[c]pyrimido [5,6,1-jk]carbazole-4,6(5H)-dione dihydrochloride]	30 nM	–
CC(=O)Nc1ccc2c(ccc3c2c2cccc4c(=O)n(CCN(C)C)c(=O)n3c42)c1 [Example 50, 11-Acetamido-5-[2-(dimethylamino)ethyl]-4H-benzo[c]pyrimido[5,6,1-jk]carbazole-4,6(5H)-dione hydrochloride]	7.1 nM	–
CN(C)CCN(C)CCn1c(=O)c2cccc3c4c5ccccc5ccc4n(c1=O)c23 [Example 51, 5-[2-[N-[2-(Dimethylamino)ethyl]-N-methylamino]ethyl]-4H-benzo[c]pyrimido[5,6,1-jk]carbazole-4,6(5H)-dione dihydrochloride]	290 nM	–
CN(CCO)CCn1c(=O)c2cccc3c4c5ccccc5ccc4n(c1=O)c23 [Example 52, 5-[2-[N-(2-(Hydroxyethyl)-N-methylamino]ethyl]-4H-benzo[c]pyrimido[5,6,1-jk]carbazole-4,6(5H)-dione hydrochloride]	150 nM	survival rate on day 21 at 50 mg/kg [2, 3]: 100%; inhibition in vivo at 50 mg/kg [2, 4]: 70.6%
CN(C)CCn1c(=O)c2cc(O)cc3c4c5ccccc5ccc4n(c1=O)c23 [Example 53, 5-[2-[Dimethylamino)ethyl]-2-hydroxy-4H-benzo[c]pyrimido [5,6,1-jk]carbazole-4,6(5H)-dione hydrochloride]	300 nM	–
COc1cccc2c1ccc1c3cccc4c(=O)n(CCN(C)C)c(=O)n(c43)c21 [Example 54, 2-[2-(Dimethylamino)ethyl]-9-methoxy-1H-benzo[a]pyrimido [5,6,1-jk]carbazole-1,3(2H)-dione hydrochloride]	80 nM	–
O=c1c2cccc3c4c5cccnc5ccc4n(c(=O)n1CCN1CCCC1)c23 [Example 55, 9-[2-(1-Pyrrolidinyl)ethyl]-8H-pyrido[2,3-c]pyrimido[5,6,1-jk]carbazole-8,10(9H)-dione dihydrochloride]	11 nM	–
CN(C)CCn1c(=O)c2ccc(F)c3c4c5cccnc5ccc4n(c1=O)c23 [Example 56, 9-[2-(Dimethylamino)ethyl]-13-fluoro-8H-pyrido[2,3-c]pyrimido[5,6,1-jk]carbazole-8,10(9H)-dione dihydrochloride]	15 nM	–
Cc1ccc2c(ccc3c2c2cccc4c(=O)n(CCN(C)C)c(=O)n3c42)n1 [Example 57, 9-[2-(Dimethylamino)ethyl]-3-methyl-8H-pyrido[2,3-c]pyrimido[5,6,1-jk]carbazole-8,10(9H)-dione dihydrochloride]	31 nM	–
CN(C)CCn1c(=O)c2nc3ccccc3c3c4ccc5ccccc5c4n(c1=O)c23 [Example 58, 7-[2-(Dimethylamino)ethyl]-6H-benzo[c,i]pyrimido[1,6,5-lm]-β-carboline-6,8(7H)-dione]	155 nM	–
